Earlier results on 1 molecule are cited in patent US20090192135A1, “Human Niemann Pick C1-Like 1 Gene (NPC1L1) Polymorphisms and Methods of Use Thereof” (SCHERING CORPORATION, priority 2005, published 2009).

The target in this series is T1, NPC1L1 (Homo sapiens, UniProt Q9UHC9).
T1 construct: from tissue; host or cells: small intestine of hypercholesterolemic patients (in vivo, clinical trial)
T1 sequence (Q9UHC9 22-1332 isoform Q9UHC9-2 limits assumed): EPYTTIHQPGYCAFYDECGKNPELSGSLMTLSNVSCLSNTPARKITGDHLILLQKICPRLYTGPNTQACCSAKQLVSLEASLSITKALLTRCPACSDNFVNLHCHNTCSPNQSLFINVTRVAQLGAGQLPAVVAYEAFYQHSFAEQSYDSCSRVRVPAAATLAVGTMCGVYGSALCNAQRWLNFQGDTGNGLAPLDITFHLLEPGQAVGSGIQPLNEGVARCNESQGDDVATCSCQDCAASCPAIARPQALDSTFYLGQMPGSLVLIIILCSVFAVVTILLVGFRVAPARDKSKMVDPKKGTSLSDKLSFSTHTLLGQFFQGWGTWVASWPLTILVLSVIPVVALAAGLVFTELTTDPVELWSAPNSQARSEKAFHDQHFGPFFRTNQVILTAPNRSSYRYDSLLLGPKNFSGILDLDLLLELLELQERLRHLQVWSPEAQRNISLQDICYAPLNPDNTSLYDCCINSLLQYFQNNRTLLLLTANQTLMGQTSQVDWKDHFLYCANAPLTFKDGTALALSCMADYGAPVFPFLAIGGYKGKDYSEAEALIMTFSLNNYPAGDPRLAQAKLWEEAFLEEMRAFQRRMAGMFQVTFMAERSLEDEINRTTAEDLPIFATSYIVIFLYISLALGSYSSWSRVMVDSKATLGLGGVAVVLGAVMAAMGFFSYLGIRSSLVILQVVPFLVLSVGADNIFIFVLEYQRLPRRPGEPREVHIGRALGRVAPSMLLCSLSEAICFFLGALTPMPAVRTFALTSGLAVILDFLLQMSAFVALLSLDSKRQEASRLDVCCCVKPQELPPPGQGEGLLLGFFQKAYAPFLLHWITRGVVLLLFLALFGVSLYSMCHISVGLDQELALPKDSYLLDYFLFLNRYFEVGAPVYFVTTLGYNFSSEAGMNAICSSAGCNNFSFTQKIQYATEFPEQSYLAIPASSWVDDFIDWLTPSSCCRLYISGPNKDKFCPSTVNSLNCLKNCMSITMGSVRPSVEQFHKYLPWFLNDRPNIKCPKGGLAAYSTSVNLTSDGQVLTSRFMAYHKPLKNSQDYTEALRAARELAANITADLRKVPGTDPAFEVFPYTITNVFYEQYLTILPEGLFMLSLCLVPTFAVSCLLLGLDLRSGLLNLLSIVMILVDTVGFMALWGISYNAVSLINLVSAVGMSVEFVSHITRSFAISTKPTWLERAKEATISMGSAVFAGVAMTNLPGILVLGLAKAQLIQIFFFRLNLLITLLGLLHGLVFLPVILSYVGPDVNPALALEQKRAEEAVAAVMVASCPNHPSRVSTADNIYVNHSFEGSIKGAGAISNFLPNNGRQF
The settings on record: cited from earlier work.

For the molecule `O=C1[C@H](CC[C@H](O)c2ccc(F)cc2)[C@@H](c2ccc(O)cc2)N1c1ccc(F)cc1` [ezetimibe, 1-(4-fluorophenyl)-3(R)-[3-(4-fluorophenyl)-3(S)-hydroxypropyl]-4(S)-(4-hydroxyphenyl)-2-azetidinone], the “additional LDL-C reduction compared with addition of placebo” value (added to ongoing statin therapy, stable dose of statins, EASE) is reported as roughly 23%. In addition, where the note is “ezetimibe group of EASE trial (placebo 2.7%, p<0.001)”, the “reduction in LDL-C” value is recorded as 25.8%.
